Laboratory results published in PMC6886544.
Values joined by “and” are separate entries in the source; they are usually repeats but may differ in a detail not shown here. Equal values may be shown once. Read-outs that look alike come from different tables or passages of the source.

Columns and labels:
[1] = Microsomal stability (phase I), mouse; type: in vitro ADME; conditions: mouse liver microsomes, up to 60 minutes, 37 °C
Experimental: (§1) Microsomal stability (phase I) assay.
(§2) Metabolic stability under oxidative conditions was measured in liver microsomes from different
(§3) time up to 50 minutes (HLM) or 60 minutes (MLM) at 37 °C. Based on the compound half-life t1/2,
(§4) the in vitro intrinsic clearance CLint was calculated. […]

A549 cells (KRAS mutant) = assay: CellTiter-Glo viability assay, A549; conditions: Homo sapiens, A549, 96 h, read-out: KRAS CTG EC50 A549
H358 cells (KRAS mutant) = assay: CellTiter-Glo viability assay, H358; type: cell-based; conditions: Homo sapiens, read-out: KRAS CTG EC50 H358;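 note: viable cell number estimated from ATP-dependent luminescence following exposure to serially diluted inhibitor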
EGFR-wt = EGFR-wt (Homo sapiens, UniProt P00533); assay: HTRF KinEASE-TK activity-based assay, EGFR-wt
EGFR-wt, sequence (P00533 25-1210): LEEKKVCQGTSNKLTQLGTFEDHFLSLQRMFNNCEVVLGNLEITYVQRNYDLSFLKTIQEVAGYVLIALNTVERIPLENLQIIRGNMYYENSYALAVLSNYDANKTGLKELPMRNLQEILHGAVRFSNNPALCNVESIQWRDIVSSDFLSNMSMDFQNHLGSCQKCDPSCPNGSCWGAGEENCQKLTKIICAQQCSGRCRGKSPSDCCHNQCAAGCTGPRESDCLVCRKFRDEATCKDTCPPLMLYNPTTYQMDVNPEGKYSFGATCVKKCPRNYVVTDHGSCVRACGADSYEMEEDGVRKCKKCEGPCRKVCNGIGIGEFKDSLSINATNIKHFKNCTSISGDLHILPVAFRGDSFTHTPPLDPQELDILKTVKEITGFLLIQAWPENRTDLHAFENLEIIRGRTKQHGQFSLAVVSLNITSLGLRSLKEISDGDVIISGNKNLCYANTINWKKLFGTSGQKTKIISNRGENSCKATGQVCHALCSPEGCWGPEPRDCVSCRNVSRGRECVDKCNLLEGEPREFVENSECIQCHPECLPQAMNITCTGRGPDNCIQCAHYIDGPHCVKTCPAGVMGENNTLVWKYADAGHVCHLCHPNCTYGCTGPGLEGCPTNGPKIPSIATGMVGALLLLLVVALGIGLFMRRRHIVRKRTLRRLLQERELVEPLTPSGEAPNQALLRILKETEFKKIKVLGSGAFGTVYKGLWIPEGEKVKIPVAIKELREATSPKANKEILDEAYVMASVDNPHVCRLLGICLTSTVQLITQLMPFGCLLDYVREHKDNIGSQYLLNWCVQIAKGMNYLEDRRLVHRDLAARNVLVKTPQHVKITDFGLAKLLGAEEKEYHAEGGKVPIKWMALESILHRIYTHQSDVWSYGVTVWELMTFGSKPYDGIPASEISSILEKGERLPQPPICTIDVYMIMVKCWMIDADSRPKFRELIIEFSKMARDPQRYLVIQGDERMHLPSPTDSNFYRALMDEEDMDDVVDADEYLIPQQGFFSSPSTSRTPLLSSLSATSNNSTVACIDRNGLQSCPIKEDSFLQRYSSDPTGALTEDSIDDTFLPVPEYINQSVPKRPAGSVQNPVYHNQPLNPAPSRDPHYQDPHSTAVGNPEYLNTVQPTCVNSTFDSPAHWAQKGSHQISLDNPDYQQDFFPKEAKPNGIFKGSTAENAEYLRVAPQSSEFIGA

EGFR-L858R = EGFR-L858R (Homo sapiens, UniProt P00533, L858R); assay: HTRF KinEASE-TK activity-based assay, EGFR-L858R
EGFR-L858R, sequence (P00533 25-1210 L858R): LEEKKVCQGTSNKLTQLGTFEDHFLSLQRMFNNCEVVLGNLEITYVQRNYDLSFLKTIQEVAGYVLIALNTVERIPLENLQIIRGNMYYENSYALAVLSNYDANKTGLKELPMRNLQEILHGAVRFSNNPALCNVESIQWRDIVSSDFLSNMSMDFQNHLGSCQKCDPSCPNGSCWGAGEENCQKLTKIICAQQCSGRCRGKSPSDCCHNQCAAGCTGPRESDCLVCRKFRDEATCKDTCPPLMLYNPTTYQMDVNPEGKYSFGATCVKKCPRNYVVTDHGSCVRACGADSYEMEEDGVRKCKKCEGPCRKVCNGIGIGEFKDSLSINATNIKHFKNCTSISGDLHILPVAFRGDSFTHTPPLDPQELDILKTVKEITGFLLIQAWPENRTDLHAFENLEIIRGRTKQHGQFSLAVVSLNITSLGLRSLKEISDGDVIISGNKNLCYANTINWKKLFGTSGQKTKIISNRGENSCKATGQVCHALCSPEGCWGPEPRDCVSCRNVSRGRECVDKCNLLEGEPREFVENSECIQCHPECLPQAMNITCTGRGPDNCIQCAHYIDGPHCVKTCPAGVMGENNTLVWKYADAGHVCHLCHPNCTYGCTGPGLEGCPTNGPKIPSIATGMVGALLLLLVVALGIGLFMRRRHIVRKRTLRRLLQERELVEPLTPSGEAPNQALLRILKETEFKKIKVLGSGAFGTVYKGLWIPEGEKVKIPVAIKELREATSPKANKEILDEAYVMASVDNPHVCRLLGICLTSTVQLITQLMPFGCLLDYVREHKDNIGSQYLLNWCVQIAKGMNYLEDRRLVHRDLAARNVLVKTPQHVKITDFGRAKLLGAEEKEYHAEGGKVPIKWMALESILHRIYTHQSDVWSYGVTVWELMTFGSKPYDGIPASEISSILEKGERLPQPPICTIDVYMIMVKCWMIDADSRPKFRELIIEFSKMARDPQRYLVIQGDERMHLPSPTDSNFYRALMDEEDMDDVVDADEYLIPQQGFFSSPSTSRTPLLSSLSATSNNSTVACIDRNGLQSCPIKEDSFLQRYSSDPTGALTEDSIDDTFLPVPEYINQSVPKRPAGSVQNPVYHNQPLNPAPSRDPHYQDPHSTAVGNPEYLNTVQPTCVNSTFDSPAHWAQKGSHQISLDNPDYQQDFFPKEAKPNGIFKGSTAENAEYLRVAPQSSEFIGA

[2] = test system: A431 cells (EGFR wild type); assay: CellTiter-Glo viability assay, A431; conditions: Homo sapiens, A-431, 96 h, read-out: EGFR CTG EC50 A431, A431, 96 hours, CellTiter-Glo
EGFR-L858R/T790M = EGFR-L858R/T790M (Homo sapiens, UniProt P00533, L858R/T790M); assay: HTRF KinEASE-TK activity-based assay, EGFR-L858R/T790M; conditions: EGFR HTRF IC50 L858R/T790M, ATP at Km (4 µM), 30 min preincubation; mean ± SD of three independent measurements in duplicates
EGFR-L858R/T790M, sequence (P00533 25-1210 T790M/L858R): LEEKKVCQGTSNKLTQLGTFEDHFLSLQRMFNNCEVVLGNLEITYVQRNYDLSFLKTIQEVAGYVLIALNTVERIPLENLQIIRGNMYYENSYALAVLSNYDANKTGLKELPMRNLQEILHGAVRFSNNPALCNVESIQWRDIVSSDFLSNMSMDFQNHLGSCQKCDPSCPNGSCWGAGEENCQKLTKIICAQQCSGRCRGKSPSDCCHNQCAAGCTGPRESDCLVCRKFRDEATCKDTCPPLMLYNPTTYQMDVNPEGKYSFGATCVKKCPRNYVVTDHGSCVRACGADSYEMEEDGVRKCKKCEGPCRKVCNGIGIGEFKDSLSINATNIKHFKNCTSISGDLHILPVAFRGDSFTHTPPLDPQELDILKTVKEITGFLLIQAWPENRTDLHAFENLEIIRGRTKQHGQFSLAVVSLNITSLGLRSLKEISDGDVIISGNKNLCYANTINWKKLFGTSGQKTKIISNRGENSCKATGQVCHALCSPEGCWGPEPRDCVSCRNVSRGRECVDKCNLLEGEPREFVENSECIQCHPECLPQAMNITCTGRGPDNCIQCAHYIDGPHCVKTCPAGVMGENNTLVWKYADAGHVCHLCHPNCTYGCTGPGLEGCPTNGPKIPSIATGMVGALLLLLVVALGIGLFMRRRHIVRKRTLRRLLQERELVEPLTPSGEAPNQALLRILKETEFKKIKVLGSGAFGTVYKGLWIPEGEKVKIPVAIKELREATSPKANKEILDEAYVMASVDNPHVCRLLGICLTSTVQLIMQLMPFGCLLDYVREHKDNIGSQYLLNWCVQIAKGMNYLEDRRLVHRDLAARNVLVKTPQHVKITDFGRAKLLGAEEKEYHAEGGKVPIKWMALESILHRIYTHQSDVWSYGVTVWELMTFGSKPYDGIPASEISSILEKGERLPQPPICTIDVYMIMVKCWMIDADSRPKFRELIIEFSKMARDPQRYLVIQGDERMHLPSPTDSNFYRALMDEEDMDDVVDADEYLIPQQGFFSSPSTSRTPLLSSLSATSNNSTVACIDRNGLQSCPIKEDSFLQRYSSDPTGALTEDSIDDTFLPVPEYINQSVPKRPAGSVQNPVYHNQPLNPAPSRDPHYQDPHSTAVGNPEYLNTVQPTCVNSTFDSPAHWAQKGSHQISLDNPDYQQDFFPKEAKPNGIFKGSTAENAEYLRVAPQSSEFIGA

[3] = test system: HCC827 cells (EGFR-delE746_A750); assay: CellTiter-Glo viability assay, HCC827; type: cell-based; conditions: Homo sapiens; HCC827, 96 hours, CellTiter-Glo; read-out: EGFR CTG EC50 HCC827;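 note: luminescence from ATP content as a measure of metabolically active cells, in RPMI with 10% FBS, compound added as serial dilutions after 24 h of preculture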
[4] = test system: H1975 cells (EGFR-L858R/T790M); assay: CellTiter-Glo viability assay, H1975
Plasma stability, human = type: in vitro ADME; conditions: 5 µM, 1 h, 37 °C
Caco-2 assay = type: in vitro ADME; conditions: human, Caco-2, 5 μM, pH 7.4, 2 hours
Experimental: For Caco-2 cell assay, a 10 mM DMSO stock of the compound was diluted to a final concentration of 5 μM in HBSS buffer pH 7.4 and incubated for 2 hours at 37 °C and 5% CO2 on a monolayer of Caco-2 cells (ATCC) that had been grown on a transwell membrane (Millipore, Schwalbach, Germany) for 21 days. The compound concentration was measured in the receiver as well as the donor well. Apparent permeability (Papp) from either the apical to basolateral direction or vice versa […]
is the donor drug concentration at t = 0, and dQ/dt is the amount of drug transported within the given time period of 2 hours. […]

[5] = Plasma protein binding, human; type: in vitro ADME; conditions: equilibrium dialysis, 37 °C
Experimental: (§5) Assessment of plasma protein binding was measured by equilibrium dialysis by incubating plasma
(§6) based determination of final compound concentrations. […]

[6] = Plasma protein binding, mouse; type: in vitro ADME; conditions: equilibrium dialysis, 37 °C
Experimental: as §5, §6

[7] = Microsomal stability (phase I), human; type: in vitro ADME; conditions: human liver microsomes, up to 50 minutes, 37 °C
Experimental: as §1, §2, §3, §4

Plasma stability, mouse = type: in vitro ADME; conditions: 5 µM, 1 h, 37 °C
[8] = EGFR HTRF IC50 wt, ATP at Km (9.5 µM), 30 min preincubation, mean ± SD of three independent measurements in duplicates
[9] = NCI-H358, H358, 96 hours, CellTiter-Glo
[10] = Homo sapiens, NCI-H1975, 96 h, read-out: EGFR CTG EC50 H1975, H1975, 96 hours, CellTiter-Glo
[11] = read-out: EGFR CTG EC50 H1975, H1975, 96 hours, CellTiter-Glo

Row | SMILES | microsomal CLint at 3 µM [1] [µL/min/mg] | EC50 (A549 cells (KRAS mutant)) [µM] | EC50 (H358 cells (KRAS mutant); NCI-H358, 96 h) [µM] | IC50 (EGFR-wt; [8]) [µM] | IC50 (EGFR-wt; IC50 EGFR-wt, rounded value) [µM] | IC50 (EGFR-L858R) [µM] | EC50 [2] [µM] | IC50 (EGFR-L858R/T790M) | EC50 [3] [µM] | EC50 (H358 cells (KRAS mutant); [9]) [µM] | EC50 [4, 10] [µM] | EC50 ([4]; Homo sapiens, NCI-H1975, read-out: EC50 / potency in H1975 cells, H1975, rounded value in running text) [µM] | EC50 [4, 11] [µM] | Plasma stability (Plasma stability, human) [%remain] | Papp A→B at 2 h, 5 μM (Caco-2 assay; apical to basolateral, read-out: Caco-2: Papp AB) [×10⁻⁶ cm/s] | Papp B→A at 2 h, 5 μM (Caco-2 assay; basolateral to apical, read-out: Caco-2: Papp BA) [×10⁻⁶ cm/s] | fraction unbound at 6 h, 5 µM [5] | fraction unbound at 6 h, 5 µM [6] | microsomal CLint at 3 µM [7] [µL/min/mg] | Plasma stability (Plasma stability, mouse) [%remain]
1 | C=CC(=O)Nc1cccc(-c2c(-c3ccccc3)[nH]c3ncnc(OC)c23)c1 [Compound 1a] | 156 | > 30 |  | 1.2 ± 0.087 | ~1 | 0.133 ± 0.057 | > 30 | 0.176 ± 0.033 µM | 0.827 ± 0.234 | > 30 |  |  |  |  |  |  |  |  |  | 
2 | C=CC(=O)Nc1cccc(-c2c(-c3ccc(C)cc3)[nH]c3ncnc(OC)c23)c1 [Compound 10a] | 118 | 10.2 ± 0.504 |  | 0.2 ± 0.148 |  | 0.093 ± 0.054 | 9.87 ± 4.25 | < 0.2 µM and 0.175 µM | 0.151 ± 0.01 | 14.2 ± 0.678 | 2.04 ± 0.088 | ~2 |  |  |  |  |  |  |  | 
3 | COc1ncnc2[nH]c(-c3ccc(C)cc3)c(-c3cccc(NC(=O)C=CCN(C)C)c3)c12 [Compound 10b] | 26 | 7.05 ± 3.23 |  | 0.06 ± 0.018 |  | 0.034 ± 0.011 | 2.43 ± 0.991 | 0.026 ± 0.008 µM | 0.282 ± 0.029 | 10.7 ± 3.52 | 0.98 ± 0.136 |  |  |  |  |  |  |  |  | 
4 | C=CC(=O)Nc1cccc(-c2c(-c3ccc(N4CCN(C)CC4)cc3)[nH]c3ncnc(OC4CCCC4)c23)c1 [Compound 19f] | 128 |  |  | 0.0002 |  | < 0.0001 | 1.79 ± 0.744 | < 0.0001 µM |  |  | 0.107 ± 0.045 |  |  |  |  |  |  |  |  | 
5 | C=CC(=O)Nc1cc(-c2c(-c3ccc(N4CCN(C)CC4)cc3)[nH]c3ncnc(OC)c23)ccc1OC(C)COC (stereo not shown) [Compound 20b] | 8 | 5.85 |  | 0.0002 ± 0.0002 |  | < 0.0001 | 1.32 ± 0.777 | 0.0001 ± 0.0001 µM | < 0.014 | 4.47 | ~0.3 |  | 0.375 ± 0.252 |  |  |  |  |  |  | 
6 | C=CC(=O)Nc1cccc(-c2c(-c3ccc(N4CCN(C)CC4)cc3)[nH]c3ncn(CC)c(=O)c23)c1 [Compound 29b] | 4 | 4.3 ± 1.25 |  | 0.0004 ± 0.0002 |  | 0.0002 ± 0.0001 | 0.739 ± 0.287 | 0.0005 µM | 0.015 ± 0.001 | 3.47 ± 2.01 | < 0.2 |  | 0.144 ± 0.041 |  |  |  |  |  |  | 
7 | C=CC(=O)Nc1cccc(-c2c(-c3ccc(N4CCN(C)CC4)cc3)[nH]c3ncn(CC(C)C)c(=O)c23)c1 [Compound 29h] |  | 6.14 ± 2.12 |  | 0.0008 ± 0.0002 |  | 0.0002 ± 0.0001 | 1.1 ± 0.506 | > 0.001 µM and 0.0034 µM | 0.045 ± 0.007 | 6.84 ± 0.866 | 0.686 ± 0.199 |  |  |  |  |  |  |  |  | 
8 | C=CC(=O)Nc1cccc(-c2c(-c3ccc(N4CCN(C)CC4)cc3)[nH]c3ncn(C4CCCCC4)c(=O)c23)c1 [Compound 29j] | 30 | 6.05 ± 4.6 |  | 0.0004 ± 0.0001 |  | 0.0002 ± 0.0001 | 1.12 ± 0.656 | 0.0004 ± 0.0001 µM | < 0.014 | 6.27 ± 1.27 | 0.077 ± 0.015 |  |  |  |  |  |  |  |  | 
9 | C=CC(=O)Nc1cccc(-c2c(-c3ccc(N4CCN(C)CC4)cc3)[nH]c3ncn(Cc4ccccc4)c(=O)c23)c1 [Compound 29l] |  | 25.2 ± 8.25 |  | 0.001 ± 0.0002 |  | 0.0015 ± 0.0008 | 1.08 ± 0.169 | > 0.001 µM and 0.021 µM | 0.044 ± 0.026 | > 30 | 1.57 ± 0.26 |  |  |  |  |  |  |  |  | 
10 | C=CC(=O)Nc1cccc(Oc2nc(Nc3ccc(N4CCN(C)CC4)cc3OC)ncc2Cl)c1 [WZ4002, reference compound] | 66 | 4 ± 0.545 |  |  |  |  | 2.14 ± 0.439 |  | 0.02 ± 0.006 | 4.39 ± 0.512 | 0.097 ± 0.037 |  |  | 86 | 4.9 | 11.7 | 0.008 | 0.019 | 11 | 78

More lines, in order of falling EC50 (A549 cells (KRAS mutant)), values ahead:

Row | microsomal CLint at 3 µM [1] [µL/min/mg] | EC50 (A549 cells (KRAS mutant)) [µM] | EC50 (H358 cells (KRAS mutant); NCI-H358, 96 h) [µM] | IC50 (EGFR-wt; [8]) [µM] | IC50 (EGFR-wt; IC50 EGFR-wt, rounded value) [µM] | IC50 (EGFR-L858R) [µM] | EC50 [2] [µM] | IC50 (EGFR-L858R/T790M) | EC50 [3] [µM] | EC50 (H358 cells (KRAS mutant); [9]) [µM] | EC50 [4, 10] [µM] | EC50 ([4]; Homo sapiens, NCI-H1975, read-out: EC50 / potency in H1975 cells, H1975, rounded value in running text) [µM] | EC50 [4, 11] [µM] | Plasma stability (Plasma stability, human) [%remain] | Papp A→B at 2 h, 5 μM (Caco-2 assay; apical to basolateral, read-out: Caco-2: Papp AB) [×10⁻⁶ cm/s] | Papp B→A at 2 h, 5 μM (Caco-2 assay; basolateral to apical, read-out: Caco-2: Papp BA) [×10⁻⁶ cm/s] | fraction unbound at 6 h, 5 µM [5] | fraction unbound at 6 h, 5 µM [6] | microsomal CLint at 3 µM [7] [µL/min/mg] | Plasma stability (Plasma stability, mouse) [%remain] | SMILES
11 | 84 | 2.13 ± 0.99 |  | 0.0001 |  | < 0.0001 | 0.502 ± 0.166 | > 0.001 µM and 0.0012 µM | < 0.014 | 1.94 ± 0.045 | 0.263 ± 0.046 |  |  |  |  |  |  |  |  |  | C=CC(=O)Nc1cccc(-c2c(-c3ccc(N4CCN(C)CC4)cc3)[nH]c3ncn(C4CCCC4)c(=O)c23)c1 [Compound 29i]
12 | 46 | 1.8 ± 0.131 |  | 0.0001 |  | < 0.0001 | 0.334 ± 0.05 | 0.0001 µM | < 0.014 | 2.7 ± 0.758 | 0.038 ± 0.019 |  |  |  |  |  |  |  |  |  | C=CC(=O)Nc1cccc(-c2c(-c3ccc(N4CCN(C)CC4)cc3)[nH]c3ncnc(OC(C)C)c23)c1 [Compound 19g]
13 | 6 | 1.49 ± 0.43 | 1.33 ± 0.515 |  |  |  |  |  |  |  |  |  |  |  |  |  |  |  |  |  | CN(C)C/C=C/C(=O)Nc1cc2c(Nc3ccc(F)c(Cl)c3)ncnc2cc1O[C@H]1CCOC1 [Afatinib, afatinib, reference compound]
14 |  | 1.38 ± 0.985 |  | 0.0011 ± 0.0008 |  | 0.0009 ± 0.0006 | 0.453 ± 0.218 | > 0.001 µM and 0.0077 µM | < 0.014 | 1.79 ± 0.52 | 0.228 ± 0.073 |  |  |  |  |  |  |  |  |  | C=CC(=O)Nc1cccc(-c2c(-c3ccc(N4CCN(C)CC4)cc3)[nH]c3ncn(CC4CC4)c(=O)c23)c1 [Compound 29k]
15 | 50 | 1.13 ± 0.176 |  | < 0.0001 |  | < 0.0001 | 1.53 ± 0.273 | < 0.0001 µM | < 0.014 | 1.64 ± 0.813 | 0.064 ± 0.008 |  |  |  |  |  |  |  |  |  | C=CC(=O)Nc1cccc(-c2c(-c3ccc(N4CCN(C)CC4)cc3)[nH]c3ncnc(OCCCC)c23)c1 [Compound 19d]
